Active and inactive are the calls of the source. The rule behind the calls is not given here.
How the values were obtained:
[1] = Half life in Sprague-Dawley rat 1 mg/kg, iv measured upto 24 hrs by LC-MS/MS analysis; type: ADME, organism-based; settings: in vivo
MDA-MB-231 [2] = assay: Induction of cell cycle arrest in human MDA-MB-231 cells assessed as accumulation of cells at S phase at 5 uM measured after 24 hrs by PI staining based cytometry analysis (reference value: 23.01 %); type: functional
MDA-MB-231 [3] = assay: Induction of apoptosis in human MDA-MB-231 cells assessed as upregulation of Bax expression incubated for 24 hrs; type: functional, cell-based; settings: dose 5-20 µM
MDA-MB-468 [4] = assay: Inhibition of cell migration in human MDA-MB-468 cells assessed as wound closure at 10 uM incubated for 24 hrs by wound healing assay; type: functional, cell-based
MDA-MB-231 [5] = assay: Inhibition of cell migration in human MDA-MB-231 cells assessed as upregulation of E-cadherin level by measuring fluorescence intensity at 10 uM incubated for 24 hrs by confocal microscopic analysis; type: functional, cell-based
MDA-MB-231 [6] = assay: […] DNA repair in human MDA-MB-231 cells assessed as […] formation at 10 uM incubated for 24 hrs by confocal laser scanning microscopic analysis; type: functional, cell-based
MDA-MB-468 [7] = assay: Inhibition of cell migration in human MDA-MB-468 cells assessed as downregulation of MMP-2 level by measuring fluorescence intensity at 10 uM incubated for 24 hrs by confocal microscopic analysis; type: functional, cell-based
[8] = biological target: Poly [ADP-ribose] polymerase 2 (Homo sapiens, UniProt Q9UGN5); assay: Inhibition of PARP2 (unknown origin) incubated for 1 hr by ELISA analysis
MDA-MB-468 [9] = assay: Antiproliferative activity against human MDA-MB-468 cells assessed as inhibition of cell growth incubated for 24 hrs by MTT assay; type: functional, cell-based; settings: MDA-MB-468, 24 h
MDA-MB-231 [10] = assay: Antiproliferative activity against human MDA-MB-231 cells assessed as reduction in EDU-positive cells at 10 uM […]-staining based analysis; type: functional, cell-based
[11] = Cmax in Sprague-Dawley rat at 1 mg/kg, iv measured upto 24 hrs by LC-MS/MS analysis; type: ADME, organism-based; settings: in vivo
MDA-MB-468 [12] = assay: Inhibition of cell migration in human MDA-MB-468 cells assessed as upregulation of E-cadherin level by measuring fluorescence intensity at 10 uM incubated for 24 hrs by confocal microscopic analysis; type: functional, cell-based
MDA-MB-468 [13] = assay: […] DNA repair in human MDA-MB-468 cells assessed as […] formation at 10 uM incubated for 24 hrs by confocal laser scanning microscopic analysis; type: functional, cell-based
MDA-MB-231 [14] = assay: Antitumor activity against human MDA-MB-231 cells xenografted in ip dosed BALB/c mouse assessed as upregulation of E-cadherin level administered once daily for 16 days; type: functional, organism-based; settings: dose 20-80 mg/kg, time 16.0 day
MDA-MB-231 [15] = assay: Induction of […] in human MDA-MB-231 cells assessed as increase in gamma-H2AX foci formation at 10 uM incubated for 24 hrs by confocal laser scanning microscopic analysis; type: functional, cell-based
[16] = Cmax in Sprague-Dawley rat at 10 mg/kg, po measured upto 24 hrs by LC-MS/MS analysis; type: ADME, organism-based; settings: in vivo
MDA-MB-231 [17] = assay: Induction of apoptosis in human MDA-MB-231 cells assessed as downregulation of Bcl-2 expression incubated for 24 hrs; type: functional, cell-based; settings: dose 5-20 µM
[18] = biological target: T1, Poly [ADP-ribose] polymerase 1 (Homo sapiens, UniProt P09874); assay: Inhibition of PARP1 (unknown origin) incubated for 1 hr by ELISA analysis
MDA-MB-231 [19] = assay: Antiproliferative activity against human MDA-MB-231 cells transfected with wild type PARP1 and CDK12 M816A mutant incubated for 24 hrs by MTT assay; type: functional, cell-based
MDA-MB-436 [20] = assay: Induction of cell cycle arrest in human MDA-MB-436 cells assessed as accumulation of cells at G1 phase at 20 uM measured after 24 hrs by PI staining based cytometry analysis (reference value: 72.04%); type: functional
MDA-MB-436 [21] = assay: Induction of cell cycle arrest in human MDA-MB-436 cells assessed as accumulation of cells at S phase at 10 uM measured after 24 hrs by PI staining based cytometry analysis (reference value: 25.43%); type: functional
[22] = Volume of distribution at steady state in Sprague-Dawley rat at 1 mg/kg, iv measured upto 24 hrs by LC-MS/MS analysis; type: ADME, organism-based; settings: in vivo, read-out: Vdss
[23] = biological target: Vascular endothelial growth factor receptor 3 (Homo sapiens) (UniProt P35916); assay: Inhibition of FLT4 (unknown origin) at 1 uM relative to control
MDA-MB-436 [24] = assay: Antiproliferative activity against human MDA-MB-436 cells transfected with wild type PARP1 and CDK12 M816A mutant incubated for 24 hrs by MTT assay; type: functional, cell-based
MDA-MB-231 [25] = assay: Antiproliferative activity against human MDA-MB-231 cells transfected with CDK12 M816A and PARP1 G863A mutant incubated for 24 hrs by MTT assay; type: functional, cell-based
[26] = biological target: T1, Poly [ADP-ribose] polymerase 1; assay: Binding affinity to PARP1 in human MDA-MB-231 cells assessed as increase in protein thermal stabilization at 10 uM incubated for 6 hrs by CETSA based Western blot analysis; type: cell-based
MDA-MB-436 [27] = assay: Antiproliferative activity against human MDA-MB-436 cells transfected with wild type CDK12 and PARP1 G863A mutant incubated for 24 hrs by MTT assay; type: functional, cell-based
[28] = AUC (0 to t) in Sprague-Dawley rat at 10 mg/kg, po measured upto 24 hrs by LC-MS/MS analysis; type: ADME, organism-based; settings: in vivo
[29] = Toxicity in BALB/c mouse xenografted with human MDA-MB-231 cells assessed as morphological changes in kidney at 20 to 80 mg/kg, ip administered once daily for 16 days by H and E staining based analysis; type: organism-based; settings: in vivo, 384 h, dose 20-80 mg/kg, time 16 day
[30] = biological target: MAP kinase-activated protein kinase 2 (Homo sapiens) (UniProt P49137); assay: Inhibition of MAPK2 (unknown origin) at 1 uM relative to control
[31] = biological target: Cyclin-dependent kinase 2 (Homo sapiens, UniProt P24941); assay: Inhibition of CDK2 (unknown origin)
MDA-MB-468 [32] = assay: Antiproliferative activity against human MDA-MB-468 cells assessed as decrease in number of colony formation at 10 uM measured after 24 days by crystal violet staining based analysis; type: functional, cell-based; settings: time 24.0 day
MCF-10A = assay: Cytotoxicity against human MCF-10A cells assessed reduction in cell viability incubated for 24 hrs by MTT assay; type: toxicity, cell-based
MDA-MB-231 [33] = assay: Induction of apoptosis in human MDA-MB-231 cells assessed as increase in […] at 10 uM incubated for 24 hrs by Annexin V/PI staining based flow cytometry analysis; type: functional, cell-based
MDA-MB-436 [34] = assay: Induction of cell cycle arrest in human MDA-MB-436 cells assessed as accumulation of cells at G1 phase at 10 uM measured after 24 hrs by PI staining based cytometry analysis (reference value: 72.04%); type: functional
MDA-MB-468 [35] = assay: Induction of […] in human MDA-MB-468 cells assessed as increase in gamma-H2AX foci formation at 10 uM incubated for 24 hrs by confocal laser scanning microscopic analysis; type: functional, cell-based
MDA-MB-468 [36] = assay: Inhibition of cell migration in human MDA-MB-468 cells at 10 uM incubated for 24 hrs by transwell assay; type: functional, cell-based

T1 sequence (P09874 whole entry): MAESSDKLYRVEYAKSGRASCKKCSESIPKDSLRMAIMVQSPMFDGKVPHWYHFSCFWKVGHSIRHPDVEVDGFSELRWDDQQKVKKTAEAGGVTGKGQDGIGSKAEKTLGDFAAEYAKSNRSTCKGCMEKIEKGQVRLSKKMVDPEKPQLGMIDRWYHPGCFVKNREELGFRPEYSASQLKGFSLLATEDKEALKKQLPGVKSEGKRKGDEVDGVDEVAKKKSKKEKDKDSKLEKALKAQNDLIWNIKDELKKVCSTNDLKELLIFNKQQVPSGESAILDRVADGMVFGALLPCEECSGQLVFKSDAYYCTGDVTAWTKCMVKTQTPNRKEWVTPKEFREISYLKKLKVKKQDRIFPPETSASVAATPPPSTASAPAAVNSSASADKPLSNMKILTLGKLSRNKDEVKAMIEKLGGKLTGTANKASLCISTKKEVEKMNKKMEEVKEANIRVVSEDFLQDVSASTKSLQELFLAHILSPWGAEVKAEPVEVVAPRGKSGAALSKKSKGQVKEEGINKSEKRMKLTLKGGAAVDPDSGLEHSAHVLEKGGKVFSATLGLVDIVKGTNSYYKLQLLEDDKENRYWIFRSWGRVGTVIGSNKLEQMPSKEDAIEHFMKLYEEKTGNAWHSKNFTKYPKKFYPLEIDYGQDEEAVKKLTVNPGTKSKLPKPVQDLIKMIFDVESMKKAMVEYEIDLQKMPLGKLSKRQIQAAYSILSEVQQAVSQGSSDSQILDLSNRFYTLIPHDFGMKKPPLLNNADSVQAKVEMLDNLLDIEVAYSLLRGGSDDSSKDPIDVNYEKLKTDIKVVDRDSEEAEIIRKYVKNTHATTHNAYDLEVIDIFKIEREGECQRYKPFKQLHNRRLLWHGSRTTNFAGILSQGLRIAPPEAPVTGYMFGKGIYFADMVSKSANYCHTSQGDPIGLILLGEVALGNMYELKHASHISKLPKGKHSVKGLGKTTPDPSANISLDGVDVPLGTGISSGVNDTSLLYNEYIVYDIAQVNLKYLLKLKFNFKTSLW
MAP kinase-activated protein kinase 2 (Homo sapiens), sequence (P49137 whole entry, looked up): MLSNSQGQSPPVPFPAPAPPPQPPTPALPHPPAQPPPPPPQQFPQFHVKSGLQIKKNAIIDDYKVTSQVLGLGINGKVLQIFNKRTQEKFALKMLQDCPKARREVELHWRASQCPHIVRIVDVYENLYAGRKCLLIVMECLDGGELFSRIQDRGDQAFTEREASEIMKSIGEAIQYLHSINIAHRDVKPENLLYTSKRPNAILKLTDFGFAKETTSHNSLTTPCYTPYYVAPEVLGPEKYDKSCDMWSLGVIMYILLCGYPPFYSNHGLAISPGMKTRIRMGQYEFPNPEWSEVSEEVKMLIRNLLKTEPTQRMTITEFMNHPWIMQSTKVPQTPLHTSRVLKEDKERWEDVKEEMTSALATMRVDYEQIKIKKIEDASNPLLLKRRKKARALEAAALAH
Vascular endothelial growth factor receptor 3 (Homo sapiens), sequence (P35916 whole entry): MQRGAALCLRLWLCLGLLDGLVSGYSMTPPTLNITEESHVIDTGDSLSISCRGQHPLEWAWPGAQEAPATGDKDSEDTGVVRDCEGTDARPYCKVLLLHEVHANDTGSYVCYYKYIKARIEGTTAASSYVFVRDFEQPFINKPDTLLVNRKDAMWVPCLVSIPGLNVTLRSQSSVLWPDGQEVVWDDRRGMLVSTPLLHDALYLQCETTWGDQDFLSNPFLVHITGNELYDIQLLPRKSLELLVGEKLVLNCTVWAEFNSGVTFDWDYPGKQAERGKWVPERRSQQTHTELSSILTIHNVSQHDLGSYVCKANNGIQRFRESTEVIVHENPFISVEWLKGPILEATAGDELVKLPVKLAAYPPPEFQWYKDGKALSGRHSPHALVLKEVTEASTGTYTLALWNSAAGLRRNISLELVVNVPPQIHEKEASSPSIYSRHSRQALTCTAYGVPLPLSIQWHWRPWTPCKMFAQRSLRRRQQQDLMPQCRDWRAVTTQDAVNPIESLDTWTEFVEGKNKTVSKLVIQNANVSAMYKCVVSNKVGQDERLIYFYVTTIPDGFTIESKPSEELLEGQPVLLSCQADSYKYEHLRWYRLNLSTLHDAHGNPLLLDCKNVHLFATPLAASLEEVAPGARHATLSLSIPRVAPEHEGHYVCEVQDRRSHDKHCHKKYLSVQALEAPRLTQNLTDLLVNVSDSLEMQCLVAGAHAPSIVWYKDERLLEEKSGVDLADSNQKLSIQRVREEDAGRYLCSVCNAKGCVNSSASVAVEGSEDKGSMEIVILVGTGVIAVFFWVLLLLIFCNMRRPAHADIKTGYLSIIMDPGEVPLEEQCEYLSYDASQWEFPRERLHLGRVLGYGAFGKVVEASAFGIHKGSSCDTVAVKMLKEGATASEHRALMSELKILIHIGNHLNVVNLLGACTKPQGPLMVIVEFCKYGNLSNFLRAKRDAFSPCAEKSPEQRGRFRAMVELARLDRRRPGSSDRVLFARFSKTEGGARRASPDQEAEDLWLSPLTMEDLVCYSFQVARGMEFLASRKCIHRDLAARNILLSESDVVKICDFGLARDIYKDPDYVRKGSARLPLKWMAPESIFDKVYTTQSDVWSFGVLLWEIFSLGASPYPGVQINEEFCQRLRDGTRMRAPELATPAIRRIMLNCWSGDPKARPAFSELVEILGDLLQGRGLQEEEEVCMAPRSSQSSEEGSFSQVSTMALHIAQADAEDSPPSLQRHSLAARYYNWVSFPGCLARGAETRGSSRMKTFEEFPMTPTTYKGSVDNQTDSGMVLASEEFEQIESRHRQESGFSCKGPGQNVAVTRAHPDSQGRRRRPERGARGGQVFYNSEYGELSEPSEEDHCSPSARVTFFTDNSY
Poly [ADP-ribose] polymerase 2, sequence (Q9UGN5 whole entry): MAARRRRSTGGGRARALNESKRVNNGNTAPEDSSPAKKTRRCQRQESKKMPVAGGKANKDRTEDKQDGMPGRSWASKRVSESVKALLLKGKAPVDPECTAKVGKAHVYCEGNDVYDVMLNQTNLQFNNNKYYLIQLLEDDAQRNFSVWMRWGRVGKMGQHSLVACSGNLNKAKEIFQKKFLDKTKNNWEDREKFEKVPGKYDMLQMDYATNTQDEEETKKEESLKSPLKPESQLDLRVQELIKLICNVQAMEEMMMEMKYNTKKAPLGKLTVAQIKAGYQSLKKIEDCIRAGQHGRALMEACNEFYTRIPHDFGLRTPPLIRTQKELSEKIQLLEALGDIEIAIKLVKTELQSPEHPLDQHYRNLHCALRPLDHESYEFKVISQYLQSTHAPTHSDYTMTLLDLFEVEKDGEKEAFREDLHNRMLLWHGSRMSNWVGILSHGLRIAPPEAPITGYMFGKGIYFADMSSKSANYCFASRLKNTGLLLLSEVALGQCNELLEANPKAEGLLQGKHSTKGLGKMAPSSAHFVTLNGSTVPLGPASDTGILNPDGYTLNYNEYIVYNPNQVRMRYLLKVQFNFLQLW

For `NC(=O)c1cccc2[nH]c(NC(=O)c3cccc(C(=O)N4CCC(Nc5ncc(I)cn5)CC4)c3)nc12`, the half-life [1] was 3 h, the Activity (MDA-MB-231 [2]) was 19.81% and the Activity (MDA-MB-231 [3]) was “Dose-Dependent Effect”. For the same molecule, the inhibition (MDA-MB-468 [4]) was “Active”, the inhibition (MDA-MB-231 [5]) was “Active” and the Activity (MDA-MB-231 [6]) was “Active”. For the same molecule, the inhibition (MDA-MB-468 [7]) was “Active”, the IC50 [8] was 0.03 µM and the IC50 (MDA-MB-468 [9]) was 9.7 µM. For the same molecule, the Activity (MDA-MB-231 [10]) was “Active”, the Cmax [11] was 2.13 µg/mL and the inhibition (MDA-MB-468 [12]) was “Active”. The Activity (MDA-MB-468 [13]) was “Active”, the Activity (MDA-MB-231 [14]) was “Dose-Dependent Effect” and the Activity (MDA-MB-231 [15]) was “Active”. The Cmax [16] was 0.0122 µg/mL, the Activity (MDA-MB-231 [17]) was “Dose-Dependent Effect” and the IC50 [18] was 0.034 µM. The Activity (MDA-MB-231 [19]) was “Active”, the Activity (MDA-MB-436 [20]) was 63.76% and the Activity (MDA-MB-436 [21]) was 25.71%. For the same molecule, the Vd [22] was 1.39 L/kg, the inhibition [23] was over 60% and the Activity (MDA-MB-436 [24]) was “Active”. For the same molecule, the Activity (MDA-MB-231 [25]) was “Active”, the Activity [26] was “Active” and the Activity (MDA-MB-436 [27]) was “Active”. For the same molecule, the AUC(0-t) at 24 h [28] was 0.0606 µg·h/mL, the Activity [29] was “Non-Toxic” and the inhibition [30] was over 60%. For the same molecule, the IC50 [31] was 0.689 µM, the Activity (MDA-MB-468 [32]) was “Active” and the Activity (MCF-10A) was “Non-Toxic”. The Activity (MDA-MB-231 [33]) was “Active”, the Activity (MDA-MB-436 [34]) was 66.94% and the Activity (MDA-MB-468 [35]) was “Active”. For the same molecule, the inhibition (MDA-MB-468 [36]) was “Active”.
